Reference: the supplement of paper PMC4862054

How the values were obtained:
Conditions in all cases: incubation time: 72 h
[1] = test system: BT-474; assay: drug sensitivity score (DSS), CellTiter-Glo (DSS (AUC-based score)); higher = stronger drug effect (viability inhibition or cytotoxicity); extreme values may be limits of the assay
How it was run: (§1)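 Breast cancer cell lines (20 µl suspension) were seeded into 384-well plates holding compound at 5 concentrations in 10-fold steps over a compound-specific 10,000-fold range, then incubated 72 h. CellTox Green fluorescence (485/520 nm) was read first, then CellTiter-Glo luminescence after 10 min at room temperature. Each plate was normalised to 0.1 % DMSO and a positive kill control. The drug sensitivity score was calculated from the area under the fitted dose-response curve.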

[2] = test system: BT-549; assay: as above
How it was run: as §1

[3] = test system: CAL-120; assay: as above
How it was run: as §1

[4] = test system: CAL-148; assay: as above
How it was run: as §1

[5] = test system: CAL-51; assay: as above
How it was run: as §1

[6] = test system: CAL-85-1; assay: as above
How it was run: as §1

[7] = test system: DU-4475; assay: as above
How it was run: as §1

[8] = test system: HCC1143; assay: as above
How it was run: as §1

[9] = test system: HCC1599; assay: as above
How it was run: as §1

[10] = test system: HCC1937; assay: as above
How it was run: as §1

[11] = test system: HDQ-P1; assay: as above
How it was run: as §1

[12] = test system: Hs578T; assay: as above
How it was run: as §1

[13] = test system: MCF-10A; assay: as above
How it was run: as §1

[14] = test system: MDA-MB-231; assay: as above
How it was run: as §1

[15] = test system: MDA-MB-436; assay: as above
How it was run: as §1

[16] = test system: MDA-MB-453; assay: as above
How it was run: as §1

[17] = test system: MDA-MB-468; assay: as above
How it was run: as §1

[18] = test system: MFM-223; assay: as above
How it was run: as §1

[19] = test system: SK-BR-3; assay: as above
How it was run: as §1

[20] = test system: BT-549; assay: drug sensitivity score (DSS), CellTox Green (DSS (AUC-based score)); higher = stronger drug effect (viability inhibition or cytotoxicity); extreme values may be limits of the assay
How it was run: as §1

[21] = test system: CAL-120; assay: as above
How it was run: as §1

[22] = test system: CAL-85-1; assay: as above
How it was run: as §1

[23] = test system: MDA-MB-436; assay: as above
How it was run: as §1

[24] = test system: MFM-223; assay: as above
How it was run: as §1

Row | Structure (SMILES) | drug sensitivity score [1] | drug sensitivity score [2] | drug sensitivity score [3] | drug sensitivity score [4] | drug sensitivity score [5] | drug sensitivity score [6] | drug sensitivity score [7] | drug sensitivity score [8] | drug sensitivity score [9] | drug sensitivity score [10] | drug sensitivity score [11] | drug sensitivity score [12] | drug sensitivity score [13] | drug sensitivity score [14] | drug sensitivity score [15] | drug sensitivity score [16] | drug sensitivity score [17] | drug sensitivity score [18] | drug sensitivity score [19] | drug sensitivity score [20] | drug sensitivity score [21] | drug sensitivity score [22] | drug sensitivity score [23] | drug sensitivity score [24]
1 | CC(O)(CS(=O)(=O)c1ccc(F)cc1)C(=O)Nc1ccc(C#N)c(C(F)(F)F)c1 (configuration not stated) [Bicalutamide] | 0 | 0 | 0 | 0 | 0 | 0 | 0 | 0 | 0 | 0 | 0 | 0 | 0 | 0 | 0 | 0.186 | 0 | 0 | 0 | 0 | 0 | 0 | 0 | 0
2 | COc1ccc(S(=O)(=O)Nc2cccnc2Nc2ccc(O)cc2)cc1 [ABT-751] | 6.74 | 9.41 | 7.83 | 3.29 | 2.26 | 12.2 | 5.29 | 6.19 | 11.2 | 2.93 | 5.44 | 10.9 | 2.74 | 7.19 | 11.4 | 10.5 | 12 | 7.28 | 13.1 | 10.2 | 0.145 | 12 | 9.27 | 4.05
3 | Cc1nc(C(=O)NCC(=O)O)c(O)c2ccc(Oc3ccccc3)cc12 [FG-4592] | 0 | 0 | 0 | 0 | 0 | 0 | 0 | 0 | 0 | 0 | 0 | 0 | 0 | 0 | 0 | 0 | 0 | 0 | 0 | 0 | 0 | 0 | 0 | 0
4 | CC(C)n1cnc2c(NCCc3ccc(O)cc3)nc(-c3csc4ccccc34)nc21 [StemRegenin 1] | 0 | 3.44 | 0 | 0 | 0 | 0 | 0 | 0 | 0 | 1.53 | 1.2 | 0 | 0 | 0 | 0.344 | 0.255 | 0.986 | 1.58 | 0 | 0 | 0 | 0 | 0 | 5.31
5 | O=C(CCCCCCC(=O)Nc1ccccc1)NO [Vorinostat] | 4.8 | 1.14 | 3.27 | 5.5 | 8.31 | 4.06 | 5.43 | 4.04 | 4.43 | 3.4 | 2.32 | 2.53 | 1.17 | 5.59 | 0 | 10.6 | 8.49 | 3.32 | 5.14 | 0.875 | 2.58 | 0 | 0 | 0
6 | Cn1cc(C2=C(c3cn(C4CCN(Cc5ccccn5)CC4)c4ccccc34)C(=O)NC2=O)c2ccccc21 [Enzastaurin] | 0 | 0 | 0 | 0 | 0 | 0 | 0 | 0 | 0 | 0 | 0 | 0 | 0 | 0 | 0 | 0 | 0 | 0 | 0 | 0 | 0 | 0 | 0 | 0
7 | CC(C)(C)NC(=O)[C@H]1CC[C@H]2[C@@H]3CC[C@H]4NC(=O)C=C[C@]4(C)[C@H]3CC[C@]12C [Finasteride] | 0 | 0 | 0 | 0 | 0 | 0 | 0 | 0 | 0 | 0 | 0 | 0 | 0 | 0 | 0 | 0 | 0 | 0 | 0 | 0 | 0 | 0 | 0 | 3.14
8 | Cc1cn(-c2cc(NC(=O)c3ccc(C)c(Nc4nccc(-c5cccnc5)n4)c3)cc(C(F)(F)F)c2)cn1 [Nilotinib] | 0 | 1.04 | 0 | 0 | 6.22 | 0 | 0 | 0 | 0 | 0 | 0 | 0 | 0 | 0 | 0 | 0 | 0 | 0 | 0 | 1.71 | 0 | 0 | 0 | 0
